Here are results for 32 compounds from US20210238139A1, “MODULATORS OF TRYPTOPHAN CATABOLISM” (E-Therapeutics PLC, priority 2018, published 2021).

Like-named read-outs stand apart in the source and are kept apart here.

The test deals with SK-OV-3 cells. The test can be described thus: Effect of compounds on tryptophan catabolism in SK-OV-3 cell line (inhibition of kynurenine production, LC-MS/MS). The note with it: SK-OV-3 cell line, 24 h incubation, kynurenine in supernatant by LC-MS/MS, read-out: IC50 Ranges (ic50 values for inhibition of Kynurenine production). Type of test: cell-based. The gist of the method: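 Kynurenine in supernatants quantified by LC-MS/MS after 24 h compound exposure (37 °C; top 30 μM, eight 3-fold steps, duplicate) in DMEM F-12 containing 6 mg/mL L-tryptophan. Cells pre-plated overnight in McCoy's 5A with 10% FBS. Viability checked in parallel by ATP luminescence.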

By IC50 is commonly meant the concentration at which inhibition is half-maximal. For `O=C(Nc1ccccc1)N(Cc1nccs1)C1CCCC1` [Compound 35, 1-cyclopentyl-3-phenyl-1-(thiazol-2-ylmethyl)urea], under “Homo sapiens, SK-OV-3, 24 h”, the 50% inhibitory concentration (IC50) lay in the range of 1000 to 5000 nM.
Still for that read-out and setting: the value for `Cn1nccc1N(Cc1ccnc(C(F)(F)F)c1)C(=O)Nc1ccc(Cl)cc1` [Compound 302, 3-(4-chlorophenyl)-1-(2-methylpyrazol-3-yl)-1-[[2-(trifluoromethyl)-4-pyridyl]methyl]urea] was 1000 to 5000 nM; that for `Cn1nccc1N(Cc1ccc2ncsc2c1)C(=O)Nc1ccc(C#CCO)cc1` [Compound 280, 1-(1,3-benzothiazol-6-ylmethyl)-3-[4-(3-hydroxyprop-1-ynyl)phenyl]-1-(2-methylpyrazol-3-yl)urea] was 1000 to 5000 nM.
Take `O=C(Nc1ccc(F)cc1)N(Cc1ncccn1)C1CCCC1` [Compound 72, 1-cyclopentyl-3-(4-fluorophenyl)-1-(pyrimidin-2-ylmethyl)urea]: under “Homo sapiens, SK-OV-3, 24 h”, the IC50 was greater than 5000 nM.
Regarding `Cc1ccc(CN(C(=O)Nc2nc3ccccc3s2)C2CCCC2)o1` [Compound 134, 3-(1,3-benzothiazol-2-yl)-1-cyclopentyl-1-[(5-methyl-2-furyl)methyl]urea], under “Homo sapiens, SK-OV-3, 24 h”, the IC50 was in the range of 500 to 1000 nM.
Same read-out and setting: the same measure for `O=C(Nc1ccc(F)c(F)c1)N(Cc1ccccn1)C1CCCCC1` [Compound 33, 1-cyclohexyl-3-(3,4-difluorophenyl)-1-(2-pyridylmethyl)urea]: greater than 5000 nM; for `Cc1ccc(CN(C(=O)Nc2ccc(C#N)cc2)c2cnn(C)c2)o1` [Compound 218, 3-(4-cyanophenyl)-1-[(5-methyl-2-furyl)methyl]-1-(1-methylpyrazol-4-yl)urea]: 500 to 1000 nM.
In the case of `N#Cc1ccc(NC(=O)N(Cc2ccc3ncsc3c2)C2CCOCC2)cc1` [Compound 265, 1-(1,3-benzothiazol-6-ylmethyl)-3-(4-cyanophenyl)-1-tetrahydropyran-4-yl-urea], the IC50 (Homo sapiens, SK-OV-3, 24 h) fell in the range of 1000 to 5000 nM.
For `O=C(Nc1ccc(Cl)cc1)N(Cc1ccc2scnc2c1)C1CCC1` [Compound 260, 1-(1,3-benzothiazol-5-ylmethyl)-3-(4-chlorophenyl)-1-cyclobutyl-urea], the IC50 (Homo sapiens, SK-OV-3, 24 h) was less than 100 nM.
Take `O=C(Nc1ccccc1)N(Cc1cccs1)C1CCCC1` [Compound 195, 1-cyclopentyl-3-phenyl-1-(2-thienylmethyl)urea]: the IC50 was in the range of 100 to 500 nM.
Regarding `Cc1ccc(CN(C(=O)Nc2ccc(C3COC3)cc2)C2CCCC2)o1` [Compound 317, 1-cyclopentyl-1-[(5-methyl-2-furyl)methyl]-3-[4-(oxetan-3-yl)phenyl]urea], the IC50 (Homo sapiens, SK-OV-3, 24 h) lay within 1000 to 5000 nM.
For the compound `COC1CC(N(Cc2ccc(C)o2)C(=O)Nc2ccc(Cl)cc2)C1` (centres unmarked) [Compound 251, 3-(4-chlorophenyl)-1-(3-methoxycyclobutyl)-1-[(5-methyl-2-furyl)methyl]urea], where the note is “Homo sapiens, SK-OV-3, 24 h”, the IC50 fell in the range of 500 to 1000 nM.
`CCc1c(C)sc2c1CCN(C(=O)Nc1cc(C)cc(C)c1)C2c1ccccc1` (racemic) [Compound 194, N-(3,5-dimethylphenyl)-3-ethyl-2-methyl-7-phenyl-5,7-dihydro-4H-thieno[2,3-c]pyridine-6-carboxamide]: the IC50 (Homo sapiens, SK-OV-3, 24 h) was 100 to 500 nM.
Turning to `Cc1nc(C)c(CN(C(=O)Nc2ccccc2)C2CCCC2)s1` [Compound 170, 1-cyclopentyl-1-[(2,4-dimethylthiazol-5-yl)methyl]-3-phenyl-urea], the IC50 (Homo sapiens, SK-OV-3, 24 h) fell in the range of 1000 to 5000 nM.
In the case of `O=C(NCCc1ccccc1)N(Cc1ccccn1)C1CCCCC1` [Compound 20, 1-cyclohexyl-3-(2-phenylethyl)-1-(2-pyridylmethyl)urea], the IC50 (Homo sapiens, SK-OV-3, 24 h) was greater than 5000 nM.
As for `Cc1ccc(CN(C(=O)Nc2ccc(Cl)cc2)c2c(C)noc2C)o1` [Compound 238, 3-(4-chlorophenyl)-1-(3,5-dimethylisoxazol-4-yl)-1-[(5-methyl-2-furyl)methyl]urea], the IC50 (Homo sapiens, SK-OV-3, 24 h) was in the range of 100 to 500 nM.
Take `O=C(Nc1ccc(F)c(F)c1)N(Cc1cccs1)C1CCCC1` [Compound 4, 1-cyclopentyl-3-(3,4-difluorophenyl)-1-(2-thienylmethyl)urea]: the IC50 (Homo sapiens, SK-OV-3, 24 h) lay in the range of 500 to 1000 nM.
Same read-out and setting: the value for `Cc1ccc(CN(C(=O)Nc2ccc(C#N)cc2)C2CC(F)(F)C2)o1` [Compound 241, 3-(4-cyanophenyl)-1-(3,3-difluorocyclobutyl)-1-[(5-methyl-2-furyl)methyl]urea] was 500 to 1000 nM; that for `Cc1ccc(CN(C(=O)Nc2cccc(C#N)c2)C2CCCC2)o1` [Compound 93, 3-(3-cyanophenyl)-1-cyclopentyl-1-[(5-methyl-2-furyl)methyl]urea] was 1000 to 5000 nM; that for `Cc1ccc(CN(C(=O)Nc2ccc(C#N)cc2)c2ccccn2)o1` [Compound 283, 3-(4-cyanophenyl)-1-[(5-methyl-2-furyl)methyl]-1-(2-pyridyl)urea] was 1000 to 5000 nM.
Regarding `Cc1ccc(CN(C(=O)Nc2ccc(Cl)cc2)c2csnc2C)o1` [Compound 328, 3-(4-chlorophenyl)-1-[(5-methyl-2-furyl)methyl]-1-(3-methylisothiazol-4-yl)urea], the IC50 (Homo sapiens, SK-OV-3, 24 h) was less than 100 nM.
Take `O=C(Nc1ccc(Cl)cc1)N(Cc1ccc2ncsc2c1)C1CCC1` [Compound 243, 1-(1,3-benzothiazol-6-ylmethyl)-3-(4-chlorophenyl)-1-cyclobutyl-urea]: where the note is “Homo sapiens, SK-OV-3, 24 h”, the IC50 was in the range of 100 to 500 nM.
Take `Cc1ccc(CN(C(=O)Nc2ccc(Cl)cc2)c2ccccn2)o1` [Compound 282, 3-(4-chlorophenyl)-1-[(5-methyl-2-furyl)methyl]-1-(2-pyridyl)urea]: the IC50 (Homo sapiens, SK-OV-3, 24 h) was 500 to 1000 nM.
In the case of `COc1ccc(NC(=O)N(Cc2ccc(C)o2)C2CCCC2)cn1` [Compound 253, 1-cyclopentyl-3-(6-methoxy-3-pyridyl)-1-[(5-methyl-2-furyl)methyl]urea], the IC50 (Homo sapiens, SK-OV-3, 24 h) was 100 to 500 nM.
Consider `O=C(Nc1ccncc1)N(Cc1cccc(C(F)(F)F)c1)C1CCCC1` [Compound 88, 1-cyclopentyl-3-(4-pyridyl)-1-[[3-(trifluoromethyl)phenyl]methyl]urea], for which the IC50 (Homo sapiens, SK-OV-3, 24 h) lay in the range of 500 to 1000 nM.
`N#Cc1cccc(CN(C(=O)Nc2ccccc2)C2CCCC2)n1` [Compound 125, 1-[(6-cyano-2-pyridyl)methyl]-1-cyclopentyl-3-phenyl-urea]: under “Homo sapiens, SK-OV-3, 24 h”, the IC50 was in the range of 1000 to 5000 nM.
`N#Cc1ccc(NC(=O)N(Cc2nc3ccccc3s2)C2CCC2)cc1` [Compound 229, 1-(1,3-benzothiazol-2-ylmethyl)-3-(4-cyanophenyl)-1-cyclobutyl-urea]: where the note is “Homo sapiens, SK-OV-3, 24 h”, the IC50 lay within 100 to 500 nM.
As to `C#Cc1ccc(NC(=O)N(Cc2ccc(C)o2)C2CCCC2)nc1` [Compound 16, 1-cyclopentyl-3-(5-ethynyl-2-pyridyl)-1-[(5-methyl-2-furyl)methyl]urea], the IC50 (Homo sapiens, SK-OV-3, 24 h) lay within 100 to 500 nM.
The same measure, in the same setting: the same measure for `Cc1ccc(CN(C(=O)Nc2ccc(-c3cnn(CCN(C)C)c3)cc2)C2CCCC2)o1` [Compound 100, 1-cyclopentyl-3-[4-[1-[2-(dimethylamino)ethyl]pyrazol-4-yl]phenyl]-1-[(5-methyl-2-furyl)methyl]urea]: greater than 5000 nM.
As for `Cc1ccc(C(C)N(C(=O)Nc2ccc(F)cc2)C2CCCC2)o1` (racemic) [Compound 191, 1-cyclopentyl-3-(4-fluorophenyl)-1-[1-(5-methyl-2-furyl)ethyl]urea], the IC50 (Homo sapiens, SK-OV-3, 24 h) fell in the range of 500 to 1000 nM.
Regarding `COc1ccc(CN(C(=O)Nc2ccc(F)c(F)c2)C2CCCC2)cc1C` [Compound 47, 1-cyclopentyl-3-(3,4-difluorophenyl)-1-[(4-methoxy-3-methyl-phenyl)methyl]urea], the IC50 (Homo sapiens, SK-OV-3, 24 h) lay in the range of 100 to 500 nM.
Consider `Cc1ccc(CN(C(=O)Nc2nc(-c3ccccc3)cs2)C2CCCC2)o1` [Compound 129, 1-cyclopentyl-1-[(5-methyl-2-furyl)methyl]-3-(4-phenylthiazol-2-yl)urea], for which the IC50 (Homo sapiens, SK-OV-3, 24 h) fell in the range of 1000 to 5000 nM.
